Activity calls are given as the source filed them. The rule behind the calls is not given here.
How the values were obtained:
Bos taurus [1] = organism: Bos taurus; assay: Inhibition of calf thymus DNA topoisomerase 1 assessed as pUC19 DNA relaxation at 10 uM by gel electrophoresis
[2] = (§1) Inhibition of calf thymus DNA topoisomerase 1 assessed as pUC19 DNA relaxation by gel electrophoresis; parameters: species or system Bos taurus
Bos taurus [3] = organism: Bos taurus; assay: as §1
Bos taurus [4] = organism: Bos taurus; assay: Inhibition of calf thymus DNA topoisomerase 1 assessed as pUC19 DNA relaxation at 20 uM by gel electrophoresis
Bos taurus [5] = organism: Bos taurus; assay: Inhibition of calf thymus DNA topoisomerase 1 assessed as pUC19 DNA relaxation at 40 uM by gel electrophoresis

Structure (SMILES)	Activity (Bos taurus [1])	IC50 [2] [µM]	inhibition (Bos taurus [3])	inhibition (Bos taurus [1])	inhibition (Bos taurus [4]) [%]	inhibition (Bos taurus [5])
COc1c2ccoc2cc2oc(=O)ccc12 [BERGAPTEN]	Active	6.5	Dose-dependent effect	–	–	–
O=c1ccc2cc3ccoc3cc2o1 [PSORALEN]	–	11	Dose-dependent effect	inactive	100	–
COc1c2occc2cc2ccc(=O)oc12 [METHOXSALEN]	–	28	Dose-dependent effect	–	–	Active
